Results on 27 molecules are retold here after patent publication EP1187837B1, “THIAZEPINE INHIBITORS OF HIV-1 INTEGRASE” (THE UNITED STATES GOVERNMENT as represented by THE …, priority 1999, dated 2000).

Where “and” joins values, the source holds several entries; their conditions need not be identical. Equal entries are not always repeated. Where two headings read alike, the source gives them in different places. Bounds are passed on as bounds.

One series relates to HIV-1 infected CEM cells. As to the kind of experiment: Anti-HIV assay in cultured CEM cells (NCI Antiviral Drug Screen, XTT formazan). The series is classed as cell-based. (Tetrazolium assays rely on reduction of a dye to a coloured formazan, in cell work by metabolically active cells.)
Series [1] can be described thus: Cytotoxicity control in uninfected CEM cells (XTT formazan). It is filed as cell-based. The following applies: human, read-out: Cell data (µM) CC50: 50% cytotoxic concentration; for CC50 at 6 days: uninfected T4 lymphocytes (CEM cell line); for CC50 at 144 h: 6 days.
Experimental: (§1) The anti-HIV drug testing was performed at NCI based on a protocol described by Weislow et al.^36 All compounds were dissolved in dimethyl sulfoxide and diluted 1:100 in cell culture medium. Exponentially growing T4 lymphocytes (CEM cell line) were added at 5000 cells per well. Frozen virus stock solutions were thawed immediately before use, suspended in complete medium to yield the desired multiplicity of infection (m. o. i. ≈ 0.1), and added to the microtiter wells, resulting in a 1:200 final dilution of the compound. Uninfected cells with the compound served as a toxicity control, and infected and uninfected cells without the compound served as basic controls.
(§2) Cultures were incubated at 37°C in a 5% CO2 atmosphere for 6 days. The tetrazolium salt, XTT was added to all wells, and cultures were incubated to allow formazan color development by viable cells. Individual wells were analyzed spectrophotometrically to quantitate formazan production, and in addition were viewed microscopically for detection of viable cells and confirmation of protective activity.
For series [2], the target named is T1, purified human immunodeficiency virus type-1 integrase (HIV-1 IN) (Human immunodeficiency virus type 1 group M subtype B, UniProt P12497). As to the kind of experiment: biochemical.
Text: (§3) The HPLC purified oligonucleotides AE117 (5'-[sequence]-3'); AE118 (5'-[sequence]-3'); AE157 (5'-[sequence]-3'); AE146 (5'-[sequence]-3'); AE156 (5'-[sequence]-3'); RM22M (5'-[sequence]-3'); and RMAB2 (5'-[sequence]-3') were purchased from Midland Certified Reagent Company (Midland, TX). An expression system for the wild-type integrase and the IN^50-212 (F185K) were obtained from the Laboratory of Molecular Biology, NIDDK, NIH, Bethesda, MD.
(§4) To analyze the extent of 3'-processing and strand transfer using 5'-end labeled substrates, AE118 was 5'-end labeled using T4 polynucleotide kinase (Gibco BRL) and γ[^32P]-ATP (Dupont-NEN). […] The kinase was heat-inactivated and AE117 was added to the same final concentration. The mixture was heated at 95°C, allowed to cool slowly to room temperature, and run through a G-25 Sephadex quick spin column (Boehringer Mannheim, Indianapolis, IN) to separate annealed double-stranded oligonucleotide from unincorporated label.
(§5) To determine the extent of 3'-processing and strand transfer, integrase was preincubated at a final concentration of 200 nM with the inhibitor in a reaction buffer (50 mM NaCl, 1 mM HEPES, pH 7.5, 50 µM EDTA, 50 µM dithiothreitol, 10% glycerol (w/v), 7.5 mM MnCl2, 0.1 mg/ml bovine serum albumin, 10 mM 2-mercaptoethanol, 10% dimethyl sulfoxide, and 25 mM MOPS, pH 7.2) at 30°C for 30 minutes. Then, 20 nM of the 5'-end ^32P-labeled linear oligonucleotide substrate was added, and incubation was continued for an additional one hour. Reactions were quenched by the addition of an equal volume (16 µl) of loading dye (98% deionized formamide, 10 mM EDTA, 0.025% xylene cyanol and 0.025% bromophenol blue). An aliquot (5 µl) was electrophoresed on a denaturing 20% polyacrylamide gel (0.09 M tris-borate pH 8.3, 2 mM EDTA, 20% acrylamide, 8M urea).
(§6) Gels were dried, exposed in a PhosphorImager cassette, and analyzed using a Molecular Dynamics PhosphorImager (Sunnyvale, CA). Percent inhibition was calculated using the following equation: %I = 100 X [1-(D-C)/(N-C)] [formula] where C, N, and D are the fractions of 21-mer substrate converted to 19-mer (3'-processing product) or strand transfer products for DNA alone (C), DNA plus integrase (N), and integrase plus drug (D). All IC50 values were determined by plotting the drug concentration versus percent inhibition, and determining the concentration which produced 50% inhibition.
For series [3], the target named is T1, purified human immunodeficiency virus type-1 integrase (HIV-1 IN). In words: Integrase assay: 3'-processing and strand transfer (3'-end joining), 32P-labeled oligonucleotide, gel/PhosphorImager, Mn2+ cofactor.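 Also: enzyme at 200 nM preincubated with inhibitor 30 min at 30°C, then 20 nM labeled 21-mer DNA for 1 h, inhibition relative to enzyme without drug, background from DNA alone.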 The following applies: purified IN 200 nM, 7.5 mM MnCl2, 30°C.
Text: as §3, §4, §5, §6
A further series concerns the target T2, HIV-1 IN (Human immunodeficiency virus type 1 group M subtype B, UniProt P12497).
T2 construct: An expression system for the wild-type integrase; made in house
In words: Integrase assay with Mg+2 as cofactor. It is filed as biochemical. The following applies: compared with Mn+2. How it is done: A 21-mer oligonucleotide corresponding to the last 21 bases on the HIV-1 viral DNA in the U5 region of long terminal repeat (LTR) was radiolabeled with ^32P. This is shown in the Figs. 2 and 3 as a band corresponding to DNA alone. Integrase will cleave the last two bases of this DNA in the presence of Mn^+2 or Mg^+2 to give a 19-mer DNA substrate (lane 2) which runs faster on the gel and is indicated as 19-mer on the Figures. When an inhibitor is added this process is blocked, therefore the original 21-mer DNA would not be cut. When an inhibitor is added at various concentrations, percent inhibition at every concentration will be calculated by quantification of the intensity of each band using an Imagequant program.
The gels are run using polyacrylamide according to the standard procedures. Upon completion of electrophoresis run, the gels are dried and exposed to a phosphorimager cassette. The cassettes are analyzed by the phosphorimager, and the bands are shown on a computer screen. The intensity of each band is quantitated, plotted against concentrations of drugs, and the IC50 values are calculated from the graphs.

The target in series [4] is T1, purified human immunodeficiency virus type-1 integrase (HIV-1 IN).
Text: as §3, §4, §5, §6
Where [5] appears, read: Human immunodeficiency virus 1, CCRF-CEM, 144 h, HIV-1 infected CEM cells, 6 days, XTT, read-out: Cell data (µM) EC60: 50% effective concentration.
Where [6] appears, read: Integrase Assay IC50 (µM) 3'-Processing.
[7] abbreviates: Human immunodeficiency virus 1, CCRF-CEM, 144 h, read-out: Cell data (µM) EC60: 50% effective concentration, HIV-1 infected CEM cells, 6 days, XTT.
Where [8] appears, read: read-out: Integrase Assay IC50 (µM) 3'-Processing.

Experimental for HIV-1 infected CEM cells: as §1, §2

For `O=C1Sc2ccc(Cl)cc2C(=O)N2CCSC12` (racemic) [Compound 2, (±)-7-Chloro-2,3-dihydro-5H-thiazolo[2,3-c][1,4]benzothiazepine-5,11 (11aH)-dione], the EC50 in the series with HIV-1 infected CEM cells (setting [5]) was greater than 50 µM. Also, in series [1], the CC50 at 6 days was greater than 50 µM. The concentration for half-maximal inhibition (IC50) – broadly, the concentration that inhibits the measured activity by half – was 120 µM and 60 µM in series [2]; 151 µM and 105 µM in series [3] (setting [6]).
Consider `O=C1Sc2ccc(Br)cc2C(=O)N2CCSC12` (racemic) [Compound 3, (±)-7-Bromo-2,3-dihydro-5H-thiazolo[2,3-c][1,4]benzothiazepine-5,11 (11aH)-dione], for which the results for the half-maximal inhibitory concentration (IC50) in series [2] and in series [3] (setting [6]) were 48 ± 18 µM and 58 ± 15 µM, respectively.
On to `O=C1Sc2ccccc2C(=O)N2CSCC12` (racemic) [Compound 5], for which, in the series on HIV-1 infected CEM cells (setting [7]), the EC50 is greater than 200 µM.
For `O=C1Sc2ccc(Cl)cc2C(=O)N2CSCC12` (racemic) [Compound 6, (±)-7-Chloro-1,11a-dihydro-3H,5H,11H-thiazolo[4,3-c][1,4] benzothiazepine-5,11-dione], the EC50 in the series on HIV-1 infected CEM cells (setting [5]) was greater than 100 µM. For the same molecule, in series [1], the CC50 at 6 days is greater than 100 µM. Further, the IC50 was 160 µM and 110 µM in series [2]; 158 µM and 111 µM in series [3] (setting [6]).
On to `O=C1Sc2ccc(Br)cc2C(=O)N2CSCC12` (racemic) [Compound 7, (±)-7-Bromo-1,11a-dihydro-3H,5H,11H-thiazolo[4,3-c][1,4] benzothiazepine-5,11-dione], for which the EC50 in the series on HIV-1 infected CEM cells (setting [5]) was greater than 200 µM. In series [1], the CC50 at 6 days is greater than 200 µM. Moreover, the IC50 is 74 ± 32 µM in series [2] and 87 ± 24 µM in series [3] (setting [6]).
Turning to `Cc1ccc2c(c1)C(=O)N1CSCC1C(=O)S2` (racemic) [Compound 8, (±)-1,11a-Dihydro-7-methyl-3H,5H,11H-thiazolo[4,3-c][1,4] benzothiazepine-5,11-dione], the CC50 at 6 days in series [1] stood at 35 µM. For the same molecule, the values for the half-maximal inhibitory concentration (IC50) in series [2] and in series [3] (setting [6]) were 63 µM and 52 µM, respectively.
For `O=C1Sc2cc([N+](=O)[O-])ccc2C(=O)N2CSCC12` (racemic) [Compound 9, (±)-1,11a-Dihydro-8-nitro-3H,5H,11H-thiazolo[4,3-c][1,4] benzothiazepine-5,11-dione], the EC50 with HIV-1 infected CEM cells (setting [5]) was greater than 50 µM. In addition, the CC50 at 6 days in series [1] was greater than 50 µM. In addition, the IC50 in series [2] was 100 ± 36 µM; in series [3] (setting [6]), 90 ± 27 µM.
As to `COc1ccc2c(c1)C(=O)N1CSCC1C(=O)S2` (racemic) [Compound 10, (±)-1,11a-dihydro-7-methoxy-3H,5H,11H-thiazolo[4,3-c][1,4]benzothiazepine-5,11-dione], in the series on HIV-1 infected CEM cells (setting [5]), the EC50 is greater than 200 µM. For the same molecule, in series [1], the CC50 at 6 days is greater than 200 µM. Also, the 50% inhibitory concentration (IC50) in series [2] was 155 µM and 245 µM; in series [3] (setting [6]) it was 155 µM and 275 µM.
With `O=C1Sc2ccccc2C(=O)N2COCC12` (racemic) [Compound 12, (±)-1,11a-Dihydro-3H,5H,11H-oxazolo[4,3-c][1,4]benzothiazepine-5,11-dione], the IC50 in series [2] and in series [3] (setting [6]) was greater than 333 µM in each case.
With `Cc1ccc2c(c1)C(=O)N1CC[S@@+]([O-])[C@@H]1C(=O)S2` (racemic) [Compound 15, (±)-cis-2,3-Dihydro-7-methyl-5H-thiazolo[2,3-c][1,4]benzothiazepme-5,11 (11aH)-dione 1-Oxide], the EC50 in the series on HIV-1 infected CEM cells (setting [7]) is greater than 100 µM. Moreover, the CC50 at 144 h in series [1] was greater than 100 µM.
Take `O=C1Sc2cc3ccccc3cc2C(=O)N2CCSC12` (racemic) [Compound 19, (±)-2,3-Dihydro-5H-naphto[2,3-f]thiazolo[2,3-c][1,4]thiazepine-5,13(13aH)-dione]: in the series with HIV-1 infected CEM cells (setting [7]), the EC50 amounted to 60 µM. Further, on HIV-1 IN, the “inhibition of IN in the presence of Mg+2” value is recorded as “active in the presence of Mg^+2 within the same concentration range as in Mn^+2”.
For `O=C1Sc2cc3ccccc3cc2C(=O)N2CSCC12` (racemic) [Compound 20, (±)-1,13a-Dihydro-3H,5H,11H-naphto[2,3-f]thiazolo[4,3-c][1,4] thiazepine-5,13-dione], in that order: 279 to 286 µM and “active in the presence of Mg^+2 within the same concentration range as in Mn^+2”.
Turning to `O=C1c2ccccc2SC(O)(c2ccccc2)C2CCCN12` (racemic) [Compound 26, (±)-2,3,11,11a-Tetrahydro-11-hydroxy-11-phenyl-1H,5H-pyrrolo [2,1-c][1,4]benzothiazepin-5-one], the IC50 in series [2] and in series [3] (setting [6]) was greater than 1000 µM throughout.
Regarding `CN1CCN([C@@H]2Sc3ccccc3C(=O)N3CCC[C@@H]23)CC1` (racemic) [Compound 27, (±)-cis-2,3,11,11a-Tetrahydro-11-(4-methylpiperazin-1-yl)-1H,5H-pyrrolo[2,1-c][1,4]benzothiazepin-5-one], the EC50 with HIV-1 infected CEM cells (setting [5]) is greater than 125 µM. The CC50 at 6 days in series [1] is greater than 125 µM. For the same molecule, the IC50 in series [2] and in series [3] (setting [6]) was greater than 1000 µM throughout.
For the molecule `CN1CCN(Cc2ccc3n2Cc2ccccc2SC3c2ccccc2)CC1` (racemic) [Compound 31, (±)-3-[(4-Methylpiperazin-1-yl)methyl]-11-phenyl-5H,11H-pyrrolo [2,1-c][1,4]benzothiazepine], the half-inhibitory concentration (IC50) in series [2] and in series [3] (setting [6]) was greater than 1000 µM each time.
Take `O=C1Sc2ccccc2C(=O)N2CCSC12` (centres unmarked) [Compound 1]: the EC50 in the series on HIV-1 infected CEM cells (HIV-1 infected CEM cells, 6 days, XTT, read-out: Cell data (µM) EC60: 50% effective concentration) turned out to be 107 µM; with HIV-1 infected CEM cells (setting [7]), 107 ± 26 µM. For the same molecule, the “inhibition of IN in the presence of Mg+2” value at HIV-1 IN is “active in the presence of Mg^+2 within the same concentration range as in Mn^+2”.
For the molecule `COc1cc2c(cc1OC)C(=O)N1CSCC1C(=O)S2` (centres unmarked) [Compound 11], the EC50 in the series with HIV-1 infected CEM cells (setting [7]) was greater than 50 µM.
On to `COc1cc2c(cc1OC)C(=O)N1CCCC1C(=O)S2` (centres unmarked) [Compound 13], for which the EC50 in the series on HIV-1 infected CEM cells (setting [7]) was greater than 200 µM. The half-maximal inhibitory concentration (IC50) in series [4] and in series [3] (setting [8]) was greater than 1000 µM in each case.
As for `O=C1Sc2ccccc2C(=O)N2CCCCC12` (centres unmarked) [Compound 14], in the series with HIV-1 infected CEM cells (setting [7]), the EC50 is greater than 200 µM.
For `CC(=O)OC1Sc2ccccc2C(=O)N2CCCC12` (centres unmarked) [Compound 21], in the series on HIV-1 infected CEM cells (setting [7]), the EC50 was greater than 200 µM. Also, the IC50 in series [4] and in series [3] (setting [8]) was greater than 1000 µM each time.
With `COC1Sc2ccccc2C(=O)N2CCCC12` (centres unmarked) [Compound 22], in the series on HIV-1 infected CEM cells (setting [7]), the EC50 was greater than 200 µM. For the same molecule, the CC50 at 144 h in series [1] is greater than 200 µM. Moreover, the IC50 in series [2] and in series [3] (setting [6]) was greater than 1000 µM throughout.
As to `O=C1c2ccccc2SCC2CSC(c3ccccc3)N12` (centres unmarked) [Compound 23], the IC50 in series [2] was determined as 288 µM; in series [3] (setting [6]), 111 µM.
Turning to `COc1cc2c(cc1OC)C(=O)N1CCCC1CS2` (centres unmarked) [Compound 24], the EC50 in the series with HIV-1 infected CEM cells (setting [7]) is greater than 200 µM. Besides, the concentration for half-maximal inhibition (IC50) in series [4] and in series [3] (setting [8]) was greater than 1000 µM each time.
On to `O=C1c2ccccc2SC(O)C2CCCN12` (centres unmarked) [Compound 25], for which the EC50 in the series on HIV-1 infected CEM cells (setting [7]) was greater than 200 µM. Besides, the IC50 in series [4] and in series [3] (setting [8]) was greater than 1000 µM each time.
In the case of `O=C1Sc2ccccc2Cn2cccc21` [Compound 28], the EC50 in the series with HIV-1 infected CEM cells (setting [7]) is 146 µM. Also, the CC50 at 144 h in series [1] was greater than 200 µM.
For `CCOC(=O)C1Sc2ccccc2Cn2cccc21` (centres unmarked) [Compound 29], the IC50 in series [2] and in series [3] (setting [6]) was greater than 1000 µM throughout.
`CN(C)Cc1ccc2n1Cc1ccccc1SC2c1ccc(F)cc1` (centres unmarked) [Compound 30]: the IC50 in series [2] and in series [3] (setting [6]) was greater than 1000 µM in each case.
